The supplement of paper PMC10307832

Key:
Test in all cases: relative viability (nuclei count vs DMSO), 5 days (fraction); higher = more cells survive
Selumetinib + Pictilisib = compound: Cn1cnc2c(F)c(Nc3ccc(Br)cc3Cl)c(C(=O)NOCCO)cc21 [Selumetinib] + CS(=O)(=O)N1CCN(Cc2cc3nc(-c4cccc5[nH]ncc45)nc(N4CCOCC4)c3s2)CC1 [Pictilisib] (partner 1 µM)
Procedure, shortened: (§1)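 Lung cancer cell lines in 1536-well plates were dosed by pin tool the day after seeding, either with one drug alone or with a fixed anchor-drug dose plus five library-drug doses (not always all listed) in √10 steps. After 5 days, cells were fixed and their nuclei stained in one step (final 0.05% Triton X-100, 1% formaldehyde, 1 ug/ml Hoechst), then counted on 4× images. Relative viability is the nuclei count in treated wells divided by that in vehicle wells. Values are medians of duplicate plates.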

Venetoclax + Palbociclib = compound: CC1(C)CCC(CN2CCN(c3ccc(C(=O)NS(=O)(=O)c4ccc(NCC5CCOCC5)c([N+](=O)[O-])c4)c(Oc4cnc5[nH]ccc5c4)c3)CC2)=C(c2ccc(Cl)cc2)C1 [Venetoclax] + CC(=O)c1c(C)c2cnc(Nc3ccc(N4CCNCC4)cn3)nc2n(C2CCCC2)c1=O [Palbociclib] (partner 0.5 µM)
Procedure, shortened: as §1

Selumetinib + Pemetrexed = compound: Cn1cnc2c(F)c(Nc3ccc(Br)cc3Cl)c(C(=O)NOCCO)cc21 [Selumetinib] + Nc1nc2[nH]cc(CCc3ccc(C(=O)N[C@@H](CCC(=O)O)C(=O)O)cc3)c2c(=O)[nH]1 [Pemetrexed] (partner 0.2 µM)
Procedure, shortened: as §1

Venetoclax + Alpelisib = compound: CC1(C)CCC(CN2CCN(c3ccc(C(=O)NS(=O)(=O)c4ccc(NCC5CCOCC5)c([N+](=O)[O-])c4)c(Oc4cnc5[nH]ccc5c4)c3)CC2)=C(c2ccc(Cl)cc2)C1 [Venetoclax] + Cc1nc(NC(=O)N2CCC[C@H]2C(N)=O)sc1-c1ccnc(C(C)(C)C(F)(F)F)c1 [Alpelisib] (partner 2 µM)
Procedure, shortened: as §1

Cell Line	relative viability (Selumetinib + Pictilisib; first compound 0.02 µM)	relative viability (Selumetinib + Pictilisib; first compound 0.06325 µM)	relative viability (Selumetinib + Pictilisib; first compound 0.2 µM)	relative viability (Selumetinib + Pictilisib; first compound 0.6325 µM)	relative viability (Venetoclax + Palbociclib; first compound 0.01 µM)	relative viability (Venetoclax + Palbociclib; first compound 0.03162 µM)	relative viability (Venetoclax + Palbociclib; first compound 0.1 µM)	relative viability (Venetoclax + Palbociclib; first compound 0.3162 µM)	relative viability (Venetoclax + Palbociclib; first compound 1 µM)	relative viability (Selumetinib + Pemetrexed; first compound 0.02 µM)	relative viability (Selumetinib + Pemetrexed; first compound 0.06325 µM)	relative viability (Selumetinib + Pemetrexed; first compound 0.2 µM)	relative viability (Selumetinib + Pemetrexed; first compound 0.6325 µM)	relative viability (Venetoclax + Alpelisib; first compound 0.01 µM)	relative viability (Venetoclax + Alpelisib; first compound 0.03162 µM)	relative viability (Venetoclax + Alpelisib; first compound 0.1 µM)	relative viability (Venetoclax + Alpelisib; first compound 0.3162 µM)	relative viability (Venetoclax + Alpelisib; first compound 1 µM)
HCC-78	0.0694	0.181	0.134	0.216	0.456	0.534	0.437	0.433	0.469	0.836	0.892	0.918	0.903	0.371	0.303	0.313	0.326	0.361
ABC-1	0.64	0.605	0.393	0.607	0.802	0.796	0.564	0.618	0.797	–	–	–	–	0.933	0.996	0.853	0.967	1.01
NCI-H727	0.309	0.214	0.155	0.234	0.655	0.586	0.658	0.82	0.651	–	–	–	–	0.553	0.608	0.525	0.558	0.571
NCI-H1563	0.616	0.587	0.753	0.638	–	–	–	–	–	0.835	0.778	0.918	0.898	1.03	0.938	0.852	0.987	1.03
IA-LM	0.144	0.143	0.119	0.0815	–	–	–	–	–	–	–	–	–	0.614	0.726	0.892	0.61	0.604
ChaGo-K-1	0.619	0.838	0.55	0.824	0.992	0.986	0.867	0.905	0.899	0.258	0.258	0.275	0.256	–	–	–	–	–
NCI-H1650	0.53	0.44	0.524	0.525	0.315	0.364	0.323	0.419	0.306	0.304	0.338	0.331	0.295	–	–	–	–	–
NCI-H596	0.372	0.333	0.31	0.296	–	–	–	–	–	0.485	0.576	0.426	0.494	0.516	0.487	0.502	0.544	0.397
NCI-H1648	–	–	–	–	–	0.283	0.255	0.249	0.225	–	0.838	0.956	0.904	–	–	–	–	–
NCI-H1703	0.231	0.193	0.229	0.283	–	–	–	–	–	–	–	–	–	0.361	0.436	0.349	0.385	0.303
A549	0.441	0.377	0.256	0.238	–	–	–	–	–	–	–	–	–	0.755	0.706	0.868	0.85	0.716
NCI-H522	–	–	–	–	0.929	0.95	0.925	0.816	0.968	0.962	0.942	1	0.783	–	–	–	–	–
SW 900	–	–	–	–	0.506	0.516	0.497	0.552	0.498	0.474	0.449	0.454	0.441	–	–	–	–	–
EBC-1	0.259	0.172	0.182	0.173	–	–	–	–	–	–	–	–	–	0.815	0.869	0.806	0.831	0.875
